This is an account of results in patent US5834499A, “5-HT3 receptor agonist, novel thiazole derivative and intermediate thereof” (Yamanouchi Pharmaceutical Co., Ltd., priority 1994, dated 1998).

The structures appear in SMILES notation.

Assay [1] concerns the target T1, 5-HT3 receptor (Cavia porcellus, UniProt O70212).
T1 construct: Distal colons were excised from male Hartley guinea pigs; from tissue; host or cells: distal colon strips of male Hartley guinea pigs
T1 sequence (O70212 24-490 limits assumed): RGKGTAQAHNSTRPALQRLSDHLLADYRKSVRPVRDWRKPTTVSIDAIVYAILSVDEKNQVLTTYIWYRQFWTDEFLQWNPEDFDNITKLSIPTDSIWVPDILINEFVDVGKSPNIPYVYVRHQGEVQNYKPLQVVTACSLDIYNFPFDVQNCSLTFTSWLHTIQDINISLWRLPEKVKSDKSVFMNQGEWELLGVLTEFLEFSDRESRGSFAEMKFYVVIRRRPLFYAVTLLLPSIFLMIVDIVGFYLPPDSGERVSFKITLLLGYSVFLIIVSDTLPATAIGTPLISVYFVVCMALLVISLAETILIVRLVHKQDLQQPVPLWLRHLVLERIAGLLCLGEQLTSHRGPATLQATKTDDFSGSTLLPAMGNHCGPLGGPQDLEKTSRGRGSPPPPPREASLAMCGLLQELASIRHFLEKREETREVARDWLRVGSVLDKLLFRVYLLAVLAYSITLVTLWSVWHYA
Briefly: contractile effects on the isolated colon from a guinea pig (5-HT3 receptor agonistic activity). Further details: species or system guinea pig (male Hartley). The note with it: for Emax: guinea pig, read-out: Max. response; for Relative potency: relative EC50 value, based on that of 5-HT as standard value (1). An excerpt: Distal colons were excised from male Hartley guinea pigs (500 to 800 g) to prepare strips of about 20 mm.
Each strip was longitudinally suspended in an organ bath, and contractile response was isometrically measured.

Assay [2] deals with 5-HT3 receptor. Kind of assay: Facilitation of defecation in rat. Conditions: 10 mg/kg s.c.; number of feces excreted for four hours after administration. The assay is classed as in vivo, rat (male Wistar). The method, then: In the male Wistar rat (200-300 g), facilitating effects on defecation by stimulation of 5-HT3 receptor [Miyata et al., J. Pharmacol. Exp. Ther., 261, 297 (1992)] were studied. The compound (10 mg/kg) was subcutaneously administered to the rat and the number of feces excreted for four hours after the administration was counted.

Turning to `c1ccc2c(c1)Cc1sc([C@@H]3C[C@@H]4CCCN4C3)nc1-2` (relative stereo) [Ex. 66, (3R*,5S*)-3-(8H-indeno[1,2-d]thiazol-2-yl)-1-azabicyclo[3.3.0]octane hemifumarate], the Emax on 5-HT3 receptor [1] amounted to 57%.
For `NCCc1nc2c(s1)Cc1ccccc1-2.O=C(O)/C=C/C(=O)O` [Ex. 9, 2-(2-aminoethyl)-8H-indeno[1,2-d]thiazole fumarate], on 5-HT3 receptor [1], the Emax was found to be 75% and the Relative potency is recorded as 1/2.
Take `O=C(O)/C=C/C(=O)O.c1ccc(-c2csc(C3CCCNC3)n2)cc1` (centres unmarked) [Ex. 46, 4-Phenyl-2-(3-piperidyl)thiazole fumarate]: on 5-HT3 receptor [1], the Emax stood at 52% and the Relative potency is given as 1/2.
For the molecule `c1ccc2c(c1)Cc1sc(C3CCNC3)nc1-2` (centres unmarked) [Ex. 52, 2-(3-pyrrolidinyl)-8H-indeno[1,2-d]thiazole], the Emax at 5-HT3 receptor [1] came out at 77%. Besides, the “facilitating effect on defecation” value in the assay with 5-HT3 receptor [2] is reported as “exhibited facilitating effect on defecation”.
As for `c1csc(-c2csc(CC3CCCCN3)n2)c1` (centres unmarked) [Ex. 59, 2-[[4-(2-Thienyl)-2-thiazolyl]methyl]piperidine hemifumarate], at 5-HT3 receptor [1], the Emax stood at 45% and the Relative potency is recorded as 1/3.
Regarding `NC1(CCc2nc3c(s2)Cc2ccccc2-3)CCCCC1` [Ex. 70, 2-[2-(1-aminocyclohexyl)ethyl]-8H-indeno[1,2-d]thiazole], the Emax at 5-HT3 receptor [1] worked out at 23%.
On to `c1ccc2c(c1)Cc1sc(CCN3CCCCC3)nc1-2` [Ex. 71, 2-(2-piperidinoethyl)-8H-indeno[1,2-d]thiazole], for which, at 5-HT3 receptor [1], the Emax was found to be 51%.
